Measured values as given in ChEMBL document CHEMBL5042533, “Structural Optimization and Structure-Activity Relationship Studies of 6,6-Dimethyl-4-(phenylamino)-6H-pyrimido[5,4-b][1,4]oxazin-7(8H)-one Derivatives as A New Class of Potent Inhibitors of Pan-Trk and Their Drug-Resistant Mutants” (J Med Chem, 2022).
Activity calls are given as the source filed them. The calls are words filed in the database; no cut-off is given here.

Key:
[1] = tested on: BaF3; experiment: Cytotoxicity against mouse BaF3 cells expressing LMNA fused TrkA F589L mutant assessed as inhibition of cell growth incubated for 3 days by CCK-8 assay; type: functional, cell-based; conditions: BaF3, 72 h
[2] = tested on: BaF3; experiment: Antitumour activity against mouse BaF3 cells expressing TEL fused TrkA allografted in NOD-SCID mouse assessed as reduction in tumor progression at 40 mg/kg/day, po qd measured every 2 or 3 days for 10 days; type: functional, organism-based; conditions: time 10.0 day
[3] = tested on: BaF3; experiment: Antitumour activity against larotrectinib-resistant mouse BaF3 cells expressing TEL fused TrkC G623R mutant allografted in NOD-SCID mouse assessed as reduction in tumor growth at 40 mg/kg/day, po qd measured every 2 or 3 days for 10 days; type: functional, organism-based; conditions: time 10.0 day
[4] = Toxicity in NOD-SCID mouse allografted with mouse BaF3 cells expressing TEL fused TrkA assessed as body weight loss at 40 mg/kg, po qd measured every 2 or 3 days for 10 days; type: organism-based; conditions: in vivo, 240 h, time 10 day
[5] = Toxicity in NOD-SCID mouse allografted with larotrectinib-resistant mouse BaF3 cells expressing TEL fused TrkC G623R mutant assessed as body weight loss at 40 mg/kg, po qd measured every 2 or 3 days for 10 days; type: organism-based; conditions: in vivo, 240 h, time 10 day
[6] = Toxicity in NOD-SCID mouse assessed as histological changes in heart at 5 to 20 mg/kg, iv measured after 10 days by H and E staining based microscopic analysis; type: organism-based; conditions: in vivo, 240 h, dose 5-20 mg/kg, time 10 day
[7] = Toxicity in NOD-SCID mouse assessed as histological changes in liver at 5 to 20 mg/kg, iv measured after 10 days by H and E staining based microscopic analysis; type: organism-based; conditions: in vivo, 240 h, dose 5-20 mg/kg, time 10 day
[8] = Toxicity in NOD-SCID mouse assessed as histological changes in spleen at 5 to 20 mg/kg, iv measured after 10 days by H and E staining based microscopic analysis; type: organism-based; conditions: in vivo, 240 h, dose 5-20 mg/kg, time 10 day
[9] = Toxicity in NOD-SCID mouse assessed as histological changes in lung at 5 to 20 mg/kg, iv measured after 10 days by H and E staining based microscopic analysis; type: organism-based; conditions: in vivo, 240 h, dose 5-20 mg/kg, time 10 day
[10] = Toxicity in NOD-SCID mouse assessed as histological changes in kidney at 5 to 20 mg/kg, iv measured after 10 days by H and E staining based microscopic analysis; type: organism-based; conditions: in vivo, 240 h, dose 5-20 mg/kg, time 10 day
[11] = tested on: BaF3; experiment: In vivo inhibition of Trk signalling in NOD-SCID mouse allografted with mouse BaF3 cells expressing TEL fused TrkC G623R mutant assessed as reduction in p-Trk level at 5 to 20 mg/kg, iv qd measured after 10 days by IHC staining based analysis; type: functional, organism-based; conditions: dose 5-20 mg/kg, time 10.0 day
[12] = tested on: BaF3; experiment: In vivo inhibition of Trk signalling in NOD-SCID mouse allografted with mouse BaF3 cells expressing TEL fused TrkC G623R mutant assessed as reduction in p-Erk level at 5 to 20 mg/kg, iv qd measured after 10 days by IHC staining based analysis; type: functional, organism-based; conditions: dose 5-20 mg/kg, time 10.0 day
[13] = tested on: BaF3; experiment: In vivo inhibition of Trk signalling in NOD-SCID mouse allografted with mouse BaF3 cells expressing TEL fused TrkC G623R mutant assessed as reduction in p-Akt level at 5 to 20 mg/kg, iv qd measured after 10 days by IHC staining based analysis; type: functional, organism-based; conditions: dose 5-20 mg/kg, time 10.0 day
[14] = tested on: BaF3; experiment: cells; conditions: Mus musculus
Description: Cytotoxicity against mouse BaF3 cells harboring TEL fused TrkC G613R mutant assessed as inhibition of cell growth by MTT assay

[15] = tested on: BaF3; experiment: cells; conditions: Mus musculus, BaF3, 72 h
Description: Cytotoxicity against mouse BaF3 cells expressing TEL fused TrkA assessed as inhibition of cell growth incubated for 3 days by CCK-8 assay

[16] = tested on: BaF3; experiment: cells; conditions: Mus musculus, BaF3, 72 h; remark: listed apart in the source
Description: Cytotoxicity against mouse BaF3 cells expressing CD74 fused TrkA assessed as inhibition of cell growth incubated for 3 days by CCK-8 assay

[17] = tested on: BaF3; experiment: cells; conditions: Mus musculus, BaF3, 72 h; remark: listed apart in the source
Description: Cytotoxicity against mouse BaF3 cells expressing TEL fused TrkC assessed as inhibition of cell growth incubated for 3 days by CCK-8 assay

[18] = tested on: BaF3; experiment: cells; conditions: Mus musculus, BaF3, 72 h; remark: listed apart in the source
[19] = tested on: BaF3; experiment: cells; conditions: Mus musculus, BaF3, 72 h; remark: listed apart in the source
[20] = tested on: BaF3; experiment: cells; conditions: Mus musculus, BaF3, 72 h; remark: listed apart in the source
Description: Cytotoxicity against mouse BaF3 cells expressing LMNA fused TrkA G667S mutant assessed as inhibition of cell growth incubated for 3 days by CCK-8 assay

[21] = tested on: BaF3; experiment: cells; conditions: Mus musculus, BaF3, 72 h; remark: listed apart in the source
Description: Cytotoxicity against mouse BaF3 cells expressing TEL fused TrkC G623R assessed as inhibition of cell growth incubated for 3 days by CCK-8 assay

[22] = tested on: BaF3; experiment: cells; conditions: Mus musculus, BaF3, 72 h; remark: listed apart in the source
Description: Cytotoxicity against mouse BaF3 cells expressing TEL fused TrkC G696C assessed as inhibition of cell growth incubated for 3 days by CCK-8 assay

[23] = cells; conditions: Homo sapiens, KM12-Luc, 72 h
Description: Cytotoxicity against human KM12-Luc cells expressing TPM3 fused TrkA assessed as inhibition of cell growth incubated for 3 days by CCK-8 assay

[24] = in vitro; conditions: mouse, BaF3 cells
Description: Cytotoxicity against mouse BaF3 assessed as inhibition of cell growth incubated for 3 days by CCK-8 assay

[25] = biological target: High affinity nerve growth factor receptor (Homo sapiens, UniProt P04629); experiment: Inhibition of wild type TrkA (unknown origin) using poly(Glu: Tyr) as substrate preincubated for 15 mins followed by substrate addition and further incubated for 30 mins in presence of [gamma-33P]ATP by scintillation counting method
[26] = biological target: BDNF/NT-3 growth factors receptor (Homo sapiens, UniProt Q16620); experiment: Inhibition of wild type TrkB (unknown origin) using poly(Glu: Tyr) as substrate preincubated for 15 mins followed by substrate addition and further incubated for 30 mins in presence of [gamma-33P]ATP by scintillation counting method
Chain of BDNF/NT-3 growth factors receptor (Q16620 whole entry): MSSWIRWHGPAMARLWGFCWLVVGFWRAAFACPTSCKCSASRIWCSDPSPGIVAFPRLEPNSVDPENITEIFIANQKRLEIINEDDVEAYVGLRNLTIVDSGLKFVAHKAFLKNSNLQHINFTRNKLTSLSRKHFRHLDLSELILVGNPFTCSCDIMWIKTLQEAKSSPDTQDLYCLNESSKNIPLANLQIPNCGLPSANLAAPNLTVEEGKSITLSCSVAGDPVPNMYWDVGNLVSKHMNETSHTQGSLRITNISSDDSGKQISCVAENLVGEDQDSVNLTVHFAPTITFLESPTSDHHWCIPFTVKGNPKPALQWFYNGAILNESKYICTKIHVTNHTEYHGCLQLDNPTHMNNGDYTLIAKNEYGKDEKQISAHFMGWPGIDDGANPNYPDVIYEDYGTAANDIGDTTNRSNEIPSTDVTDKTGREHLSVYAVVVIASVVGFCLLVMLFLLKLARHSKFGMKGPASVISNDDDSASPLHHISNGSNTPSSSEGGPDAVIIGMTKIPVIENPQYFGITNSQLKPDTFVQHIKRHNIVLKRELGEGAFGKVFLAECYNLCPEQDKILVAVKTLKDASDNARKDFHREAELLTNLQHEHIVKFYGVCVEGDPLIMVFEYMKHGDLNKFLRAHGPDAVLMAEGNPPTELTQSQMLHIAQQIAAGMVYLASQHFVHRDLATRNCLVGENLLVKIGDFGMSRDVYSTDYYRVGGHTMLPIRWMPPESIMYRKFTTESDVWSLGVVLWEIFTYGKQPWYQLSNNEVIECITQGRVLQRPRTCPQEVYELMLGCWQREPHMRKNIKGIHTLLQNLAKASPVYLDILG

Chain of High affinity nerve growth factor receptor (P04629 whole entry): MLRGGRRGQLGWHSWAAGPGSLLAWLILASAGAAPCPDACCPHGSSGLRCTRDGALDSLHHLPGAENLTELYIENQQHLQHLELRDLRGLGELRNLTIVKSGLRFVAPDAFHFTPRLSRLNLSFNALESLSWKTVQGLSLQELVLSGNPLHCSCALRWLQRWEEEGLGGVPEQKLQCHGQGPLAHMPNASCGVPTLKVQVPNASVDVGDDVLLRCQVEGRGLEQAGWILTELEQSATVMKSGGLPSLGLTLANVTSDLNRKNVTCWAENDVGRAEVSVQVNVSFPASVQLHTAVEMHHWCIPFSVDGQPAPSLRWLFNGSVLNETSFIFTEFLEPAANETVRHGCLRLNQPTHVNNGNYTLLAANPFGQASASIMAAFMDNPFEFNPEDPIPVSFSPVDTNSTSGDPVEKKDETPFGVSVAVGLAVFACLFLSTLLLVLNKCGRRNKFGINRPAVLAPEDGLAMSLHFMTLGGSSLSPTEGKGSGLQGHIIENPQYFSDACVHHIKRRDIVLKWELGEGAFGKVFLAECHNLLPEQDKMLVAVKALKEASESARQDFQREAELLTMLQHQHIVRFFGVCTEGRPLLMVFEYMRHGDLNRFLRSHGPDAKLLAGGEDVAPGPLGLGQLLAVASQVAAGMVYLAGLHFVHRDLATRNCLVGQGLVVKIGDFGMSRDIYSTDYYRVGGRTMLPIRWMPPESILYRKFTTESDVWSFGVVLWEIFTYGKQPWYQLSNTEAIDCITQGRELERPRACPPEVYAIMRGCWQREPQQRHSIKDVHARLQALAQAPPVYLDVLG

SMILES: C[C@@H]1CCc2ncc(F)cc2[C@H]2CCCN2c2ccn3ncc(c3n2)C(=O)N1 [SELITRECTINIB]
- IC50 [1]: 17 nM
- Activity [2]: Active
- Activity [3]: Active
- Activity [4]: Non-Toxic
- Activity [5]: Non-Toxic
- Activity [6]: Non-Toxic
- Activity [7]: Non-Toxic
- Activity [8]: Non-Toxic
- Activity [9]: Non-Toxic
- Activity [10]: Non-Toxic
- inhibition [11]: Active
- inhibition [12]: Active
- inhibition [13]: Active
- IC50 [14]: 18 nM
- IC50 [15]: 9 nM
- IC50 [16]: 1 nM
- IC50 [17]: 4 nM
- IC50 [18]: 15 nM
- IC50 [19]: 109 nM
- IC50 [20]: 30 nM
- IC50 [21]: 18 nM
- IC50 [22]: 50 nM
- IC50 [23]: 5 nM
- IC50 at 3 days [24]: > 10000 nM

SMILES: Cc1cc(NC(=O)Nc2cc(C(C)(C)C)nn2-c2ccc(F)c(F)c2)ccc1Nc1ncnc2c1OC(C)(C)C(=O)N2
- IC50 [25]: 9 nM
- IC50 [26]: 19 nM
- IC50 [1]: 10 nM
- IC50 [14]: 34 nM
- IC50 [15]: 2 nM
- IC50 [16]: 5 nM
- IC50 [17]: 25 nM
- IC50 [18]: 82 nM
- IC50 [19]: 1 nM
- IC50 [20]: 14 nM
- IC50 [21]: 34 nM
- IC50 [22]: 2 nM
- IC50 [23]: 8 nM
- IC50 at 3 days [24]: > 10000 nM

SMILES: Cc1ccc(-n2nc(C(C)(C)C)cc2NC(=O)Nc2ccc(Nc3ncnc4c3OC(C)(C)C(=O)N4)c(C)c2)cc1
- IC50 [25]: 22 nM
- IC50 [26]: 18 nM
- IC50 [1]: 4 nM
- IC50 [14]: 58 nM
- IC50 [15]: 1 nM
- IC50 [16]: 5 nM
- IC50 [17]: 13 nM
- IC50 [18]: 31 nM
- IC50 [19]: 1 nM
- IC50 [20]: 4 nM
- IC50 [21]: 58 nM
- IC50 [22]: 2 nM
- IC50 [23]: 6 nM
- IC50 at 3 days [24]: 2990 nM
